According to patent US9701670B2, “Pyrazolyl-ureas as kinase inhibitors” (RESPIVERT LIMITED, priority 2013, dated 2017):

Experiments:
[1] = test system: Differentiated U937 cells; assay: (l) Cell viability: MTT assay; format: cell-based, human; details: 1 μg/mL
Procedure: Differentiated U937 cells are pre-incubated with each test compound (final concentration 1 μg/mL or 10 μg/mL in 200 μL media indicated below) under two protocols: the first for 4 hr in 5% FCS RPMI1640 media and the second in 10% FCS RPMI1640 media for 24 h. The supernatant is replaced with new media (200 μL) and MTT stock solution (10 μL, 5 mg/mL) is added to each well. After incubation for 1 hr the media are removed, DMSO (200 μL) is added to each well and the plates are shaken lightly for 1 hr prior to reading the absorbance at 550 nm. The percentage loss of cell viability is calculated for each well relative to vehicle (0.5% DMSO) treatment. Consequently an apparent increase in cell viability for drug treatment relative to vehicle is tabulated as a negative percentage.

[2] = target: p38 MAPKα isoform (MAPK14) (Homo sapiens (Human), UniProt Q16539); assay: p38 MAPKα enzyme inhibition (FRET, Z-LYTE), Method 1; format: biochemical; details: Method 1 (Table 4a1)
Sequence of p38 MAPKα isoform (MAPK14) (Q16539 whole entry, canonical isoform): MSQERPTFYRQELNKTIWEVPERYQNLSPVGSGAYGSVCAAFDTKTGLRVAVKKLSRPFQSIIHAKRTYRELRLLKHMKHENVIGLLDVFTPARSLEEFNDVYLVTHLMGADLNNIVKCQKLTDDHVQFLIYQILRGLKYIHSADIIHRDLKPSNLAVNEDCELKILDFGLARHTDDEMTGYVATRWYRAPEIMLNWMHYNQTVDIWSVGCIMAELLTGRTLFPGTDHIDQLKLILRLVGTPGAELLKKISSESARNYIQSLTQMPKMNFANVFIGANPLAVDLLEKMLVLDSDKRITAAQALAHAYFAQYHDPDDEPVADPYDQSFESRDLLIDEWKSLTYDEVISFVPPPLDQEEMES
Procedure: The enzyme inhibitory activities of compounds disclosed herein are determined by FRET using synthetic peptides labelled with both donor and acceptor fluorophores (Z-LYTE, Invitrogen Ltd., Paisley, UK).
The inhibitory activities of test compounds against the p38 MAPKα isoform (MAPK14: Invitrogen), are evaluated indirectly by determining the level of activation/phosphorylation of the down-stream molecule, MAPKAP-K2. The p38 MAPKα protein (80 ng/mL, 2.5 μL) is mixed with the test compound (2.5 μL of either 4 μg/mL, 0.4 μg/mL, 0.04 μg/mL or 0.004 μg/mL) for 2 hr at RT. […] The mixture is incubated for 1 hr at RT. Development reagent (protease, 5 μL) is added for 1 hr prior to detection in a fluorescence microplate reader (Varioskan® Flash, ThermoFisher Scientific).
In all cases, the site-specific protease cleaves non-phosphorylated peptide only and eliminates the FRET signal. Phosphorylation levels of each reaction are calculated using the ratio of coumarin emission (donor) over fluorescein emission (acceptor), for which high ratios indicate high phosphorylation and low ratios indicate low phosphorylation levels.

| Structure (SMILES) | Cell viability at time point in d-U937 cells 4 h [1] | Cell viability at time point in d-U937 cells 24 h [1] | IC50 [2] |
| --- | --- | --- | --- |
| Cc1ccc(-n2nc(C(C)C)cc2NC(=O)Nc2ccc(Oc3ccnc(Nc4cccc(C(=O)NCCN5CCOCC5)c4)n3)c3ccccc23)cc1 [Example 19, 3-((4-((4-(3-(3-isopropyl-1-(p-tolyl)-1H-pyrazol-5-yl)ureido)naphthalen-1-yl)oxy)pyrimidin-2-yl)amino)-N-(2-morpholinoethyl)benzamide] | −ve (−ve and +ve indicate that the value is below and above respectively, the no significant effect threshold, defined as 30% inhibition at 1 μg/mL at the time point indicated.) | −ve (−ve and +ve indicate that the value is below and above respectively, the no significant effect threshold, defined as 30% inhibition at 1 μg/mL at the time point indicated.) |  |
| COc1ccc(Nc2nccc(Oc3ccc(NC(=O)Nc4cc(C(C)C)nn4-c4ccc(C)cc4)c4ccccc34)n2)cc1C(=O)NCCN1CCOCC1 [Example 70, 5-((4-((4-(3-(3-isopropyl-1-(p-tolyl)-1H-pyrazol-5-yl)ureido)naphthalen-1-yl)oxy)pyrimidin-2-yl)amino)-2-methoxy-N-(2-morpholinoethyl)benzamide] | −ve (−ve and +ve indicate that the value is below and above respectively, the no significant effect threshold, defined as 30% inhibition at 1 μg/mL at the time point indicated.) | −ve (−ve and +ve indicate that the value is below and above respectively, the no significant effect threshold, defined as 30% inhibition at 1 μg/mL at the time point indicated.) | 5 nM |
| Cc1ccc(-n2nc(C(C)(C)C)cc2NC(=O)Nc2ccc(Oc3ccnc(Nc4cccc(C(=O)NCCN5CCN(C)CC5)c4)n3)c3ccccc23)cc1 [Example 25, 3-((4-((4-(3-(3-(tert-butyl)-1-(p-tolyl)-1H-pyrazol-5-yl)ureido)naphthalen-1-yl)oxy)pyrimidin-2-yl)amino)-N-(2-(4-methylpiperazin-1-yl)ethyl)benzamide] | −ve (−ve and +ve indicate that the value is below and above respectively, the no significant effect threshold, defined as 30% inhibition at 1 μg/mL at the time point indicated.) | −ve (−ve and +ve indicate that the value is below and above respectively, the no significant effect threshold, defined as 30% inhibition at 1 μg/mL at the time point indicated.) | 13 nM |
| Cc1ccc(-n2nc(C(C)(C)C)cc2NC(=O)Nc2ccc(Oc3ccnc(Nc4cccc(C(=O)N5CCOCC5)c4)n3)c3ccccc23)cc1 [Example 27, 1-(3-(tert-butyl)-1-(p-tolyl)-1H-pyrazol-5-yl)-3-(4-((2-((3-(morpholine-4-carbonyl)phenyl)amino)pyrimidin-4-yl)oxy)naphthalen-1-yl)urea] | −ve (−ve and +ve indicate that the value is below and above respectively, the no significant effect threshold, defined as 30% inhibition at 1 μg/mL at the time point indicated.) | −ve (−ve and +ve indicate that the value is below and above respectively, the no significant effect threshold, defined as 30% inhibition at 1 μg/mL at the time point indicated.) | 17 nM |
| COc1ccc(-n2nc(C(C)(C)C)cc2NC(=O)Nc2ccc(Oc3cc(Nc4cc(OC)cc(C(=O)NCCN5CCOCC5)c4)ncn3)c(C)c2C)cc1 [Example 91, 3-((6-(4-(3-(3-(tert-Butyl)-1-(4-methoxyphenyl)-1H-pyrazol-5-yl)ureido)-2,3-dimethylphenoxy)pyrimidin-4-yl)amino)-5-methoxy-N-(2-morpholinoethyl)benzamide] |  |  | 9.6 nM |
| COc1ccc(C(=O)NCCN(C)C)cc1Nc1nccc(Oc2ccc(NC(=O)Nc3cc(C(C)(C)C)nn3-c3ccc(C)cc3)c3ccccc23)n1 [Example 29, 3-((4-((4-(3-(3-(tert-butyl)-1-(p-tolyl)-1H-pyrazol-5-yl)ureido)naphthalen-1-yl)oxy)pyrimidin-2-yl)amino)-N-(2-(dimethylamino)ethyl)-4-methoxybenzamide] | −ve (−ve and +ve indicate that the value is below and above respectively, the no significant effect threshold, defined as 30% inhibition at 1 μg/mL at the time point indicated.) | −ve (−ve and +ve indicate that the value is below and above respectively, the no significant effect threshold, defined as 30% inhibition at 1 μg/mL at the time point indicated.) |  |
| Cc1ccc(-n2nc(C(C)C)cc2NC(=O)Nc2ccc(Oc3ccnc(Nc4cc(C(=O)NCCN5CCOCC5)cc(C(F)(F)F)c4)n3)c3ccccc23)cc1 [Example 7, 3-((4-((4-(3-(3-isopropyl-1-(p-tolyl)-1H-pyrazol-5-yl)ureido)naphthalen-1-yl)oxy)pyrimidin-2-yl)amino)-N-(2-morpholinoethyl)-5-(trifluoromethyl)benzamide] | −ve (−ve and +ve indicate that the value is below and above respectively, the no significant effect threshold, defined as 30% inhibition at 1 μg/mL at the time point indicated.) | −ve (−ve and +ve indicate that the value is below and above respectively, the no significant effect threshold, defined as 30% inhibition at 1 μg/mL at the time point indicated.) |  |
| COc1ccc(-n2nc(C(C)C)cc2NC(=O)Nc2ccc(Oc3ccnc(Nc4cc(OC)cc(C(=O)NCCN(C)C)c4)n3)c3ccccc23)cc1 [Example 6, N-(2-(Dimethylamino)ethyl)-3-((4-((4-(3-(3-isopropyl-1-(4-methoxyphenyl)-1H-pyrazol-5-yl)ureido)naphthalen-1-yl)oxy)pyrimidin-2-yl)amino)-5-methoxy benzamide] | −ve (−ve and +ve indicate that the value is below and above respectively, the no significant effect threshold, defined as 30% inhibition at 1 μg/mL at the time point indicated.) | −ve (−ve and +ve indicate that the value is below and above respectively, the no significant effect threshold, defined as 30% inhibition at 1 μg/mL at the time point indicated.) |  |
| COc1ccc(Nc2nccc(Oc3ccc(NC(=O)Nc4cc(C(C)(C)C)nn4-c4ccc(C)cc4)c4ccccc34)n2)cc1C(=O)NCCN1CCOCC1 [Example 13, 5-((4-((4-(3-(3-(tert-Butyl)-1-(p-tolyl)-1H-pyrazol-5-yl)ureido)naphthalen-1-yl)oxy)pyrimidin-2-yl)amino)-2-methoxy-N-(2-morpholinoethyl)benzamide] | −ve (−ve and +ve indicate that the value is below and above respectively, the no significant effect threshold, defined as 30% inhibition at 1 μg/mL at the time point indicated.) | −ve (−ve and +ve indicate that the value is below and above respectively, the no significant effect threshold, defined as 30% inhibition at 1 μg/mL at the time point indicated.) |  |
| COc1ccc(-n2nc(C(C)C)cc2NC(=O)Nc2ccc(Oc3ccnc(Nc4cc(C)cc(C(=O)NCCN5CCOCC5)c4)n3)c3ccccc23)cc1 [Example 45, 3-((4-((4-(3-(3-isopropyl-1-(4-methoxyphenyl)-1H-pyrazol-5-yl)ureido)naphthalen-1-yl)oxy)pyrimidin-2-yl)amino)-5-methyl-N-(2-morpholinoethyl)benzamide] | −ve (−ve and +ve indicate that the value is below and above respectively, the no significant effect threshold, defined as 30% inhibition at 1 μg/mL at the time point indicated.) | −ve (−ve and +ve indicate that the value is below and above respectively, the no significant effect threshold, defined as 30% inhibition at 1 μg/mL at the time point indicated.) |  |
| COc1cc(Nc2nccc(Oc3ccc(NC(=O)Nc4cc(C(C)(C)C)nn4-c4ccc(OC)nc4)c4ccccc34)n2)cc(C(=O)NCCN2CCOCC2)c1 [Example 57, 3-((4-((4-(3-(3-(tert-butyl)-1-(6-methoxypyridin-3-yl)-1H-pyrazol-5-yl)ureido)naphthalen-1-yl)oxy)pyrimidin-2-yl)amino)-5-methoxy-N-(2-morpholinoethyl)benzamide] | −ve (−ve and +ve indicate that the value is below and above respectively, the no significant effect threshold, defined as 30% inhibition at 1 μg/mL at the time point indicated.) | −ve (−ve and +ve indicate that the value is below and above respectively, the no significant effect threshold, defined as 30% inhibition at 1 μg/mL at the time point indicated.) |  |
